Read-outs that look alike come from different tables or passages of the source.
Assays:
[1] = target: T1, AR (Rattus norvegicus, UniProt P15207); experiment: Binding to the androgen receptor (prostate supernatant, [3H]DHT)
T1 construct: incubated with prostate supernatant and then passed through the 30 cm column; from tissue; host or cells: prostate supernatant
T1 sequence (P15207 1-902): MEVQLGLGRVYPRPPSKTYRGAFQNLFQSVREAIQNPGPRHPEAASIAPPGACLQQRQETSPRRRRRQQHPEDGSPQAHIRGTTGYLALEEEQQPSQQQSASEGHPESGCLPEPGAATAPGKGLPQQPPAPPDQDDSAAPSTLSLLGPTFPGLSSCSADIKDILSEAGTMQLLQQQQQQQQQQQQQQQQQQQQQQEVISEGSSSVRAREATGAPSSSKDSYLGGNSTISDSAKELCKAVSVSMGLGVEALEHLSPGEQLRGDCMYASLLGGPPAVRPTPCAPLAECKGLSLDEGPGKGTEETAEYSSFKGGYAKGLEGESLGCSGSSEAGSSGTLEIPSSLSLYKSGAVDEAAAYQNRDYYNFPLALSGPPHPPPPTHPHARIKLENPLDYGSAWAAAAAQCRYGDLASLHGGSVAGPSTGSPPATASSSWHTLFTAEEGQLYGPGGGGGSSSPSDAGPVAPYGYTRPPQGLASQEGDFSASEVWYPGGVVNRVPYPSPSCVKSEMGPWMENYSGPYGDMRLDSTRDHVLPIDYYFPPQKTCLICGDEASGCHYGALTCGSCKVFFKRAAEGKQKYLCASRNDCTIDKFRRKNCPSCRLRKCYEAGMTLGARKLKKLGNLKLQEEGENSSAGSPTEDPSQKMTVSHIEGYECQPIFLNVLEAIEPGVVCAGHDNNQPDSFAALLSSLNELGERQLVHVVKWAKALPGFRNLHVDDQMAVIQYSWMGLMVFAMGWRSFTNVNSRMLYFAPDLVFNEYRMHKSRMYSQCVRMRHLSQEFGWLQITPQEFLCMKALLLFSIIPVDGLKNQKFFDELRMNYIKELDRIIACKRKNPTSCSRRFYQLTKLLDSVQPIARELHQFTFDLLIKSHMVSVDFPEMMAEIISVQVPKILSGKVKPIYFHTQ

[2] = system: Male Sprague-Dawley rats; experiment: Example 1: prostate size and hormone secretion in intact male rats injected sc with racemic equol; format: in vivo, rat; conditions: intact males, 0.25 mg/kg sc 1/day for 4 days, vs control
Method: Male Sprague-Dawley rats (400-500 grams) are obtained from Charles Rivers Laboratories (Wilmington, Mass., USA). Rats are caged in pairs and maintained on a 12-hour dark 12-hour light schedule (lights on at 0700 h) with ad libitum access to food and water.
One week following arrival, animals are given subcutaneous (sc) injections (1/day for 4 days) of either dimethylsulfoxide (DMSO) (vehicle control) or racemic equol (0.25 mg/kg). Eighteen hours after the final injection, animals are killed via decapitation and trunk blood and prostate are collected for analysis.

[3] = system: intact males; experiment: Example 2: tissue weights from intact males given sc injections of racemic equol; format: in vivo, rat; conditions: sc once/day for 7 days
[4] = system: Adult male Sprague-Dawley rats; experiment: Example 3: prostate, epididymis and body weight gain in male rats treated with racemic, R- or S-equol; format: in vivo, rat; conditions: for Body Wt Gain (g) / Epididymis (g) / Prostate (g): 0.25 mg/kg/day sc, seven days
Method: Adult male Sprague-Dawley rats are randomly assigned to […] groups and receive daily injections of either DMSO, a racemic mixture of equol at 0.250 mg/kg/day), R-equol at 0.250 mg/kg/day, or S-equol at 0.250 mg/kg/day. The total volume of each injection is 0.3 cc, administered sc at the nape of the rat's neck. After seven consecutive days of treatment, the rats are killed and the body weight gain during the injection period is determined.

[5] = system: Male Long-Evans rats; experiment: Example 13: racemic equol injections in male rats on Phyto-Free diet; format: in vivo, rat
Description: Prior to initiation of a Phyto-Free diet period Male Long-Evans rats are fed a Phyto-200 diet, as described in previous examples. The rats are placed on a diet containing the Phyto-Free diet at approximately 52 days of age and randomly assigned to three groups. Baseline body weights after 14 days and 21 days on the Phyto-Free diet for all rats are similar, shown in FIGS. 43 and 44, respectively. Beginning at 73 days of age, rats receive daily subcutaneous 0.1 cc injections of vehicle (peanut oil), 1 milligram of a racemic mixture of equol in vehicle (0.83 mg/kg body weight/day), or 5 milligrams of a racemic mixture of equol in vehicle (4.2 mg/kg body weight/day) once every three days.

[6] = system: Adult male Sprague-Dawley rats; experiment: Example 15: elevated plus maze of equol injected male rats; format: in vivo, rat; conditions: 0.250 mg/Kg/day sc, seven days, n = 8
Description: The elevated plus maze is a behavioral test used to quantify anxiety-related behavior and identify anxiolytic drugs (Pellow S. et al., J Neurosci Methods, 14:149-147 (1985); Current Protocols In Neuroscience (1997) 8.3.1-8.3.15, John Wiley & Sons. NY, N.Y.). The test relies on the inherent conflict between exploration of a novel environment and avoidance of its aversive features. Normally, animals spend little time and make few entries into the open arms of the maze compared to the closed arms of the maze (Imhof J. T. et al., Behav Brain Res, 56:177-180 (1993). However, animals treated with anxiolytics, such as benzodiazepines (valium), spend more time in the open arms and the number of entries into the open arms reflects a decrease in anxiety-related behaviors (Pellow S. et al., J Neurosci Methods, 14:149-147 (1985); Current Protocols In Neuroscience (1997) 8.3.1-8.3.15, John Wiley & Sons. NY, N.Y.; Chopin P. et al., Psychopharm, 110:409-414 (1993).
Adult male Sprague-Dawley rats receive daily injections of either DMSO, racemic equol (0.250 mg/Kg/day), R-equol (0.250 mg/Kg/day), or S-equol (0.250 mg/Kg/day) in a total volume of 0.3 cc DMSO by subcutaneous injection. At the end of seven consecutive days of treatment the animals are tested in the elevated plus maze in order to quantify anxiety-related behaviors.

Row | SMILES | binding to the androgen receptor [1] | binding to the androgen receptor ([1]; listed as Equol racemic) | luteinizing hormone (LH) [2] | prostate weight [2] | Body (g) [3] | Epididymis (g) [3] | Pituitary (g) [3] | Prostate (g) [3] | Testes (g) [3] | Body Wt Gain (g) [4] | Epididymis (g) [4] | Prostate (g) [4] | decrease in body weight ([4]; equol experiments) | reduction in white adipose tissue deposition ([4]; racemic equol injections) | reduction in adipose tissue mass ([5]; 101-day-old rats, vs controls) | testes weight ([5]; 28 days after start of injections) | body weights and average body weight gains ([5]; at 80 and 88 days of age, 1 or 5 mg racemic equol sc, vs controls) | average body weight gains ([5]; at 95 and 101 days, vs control) | Center Area [6] | Open Arm Time [6]
1 | Oc1ccc(C2COc3cc(O)ccc3C2)cc1 (racemic) [equol, 7-hydroxy-3(4′hydroxyphenyl)-chroman] | does not compete with 5α-DHT for the AR | does not bind the androgen receptor | significantly increased | significant reduction | 418.0 (±7.52) g | 1.59 (±0.06) g | 0.014 (±0.002) g | 0.38 (±0.06) g | 3.48 (±0.08) g | 56.1 (±3.7) g | 0.89 (±.03) g | 0.38 (±0.02) g | around 10% | around 36% | approximately 33% | no significant alterations | not significantly different from controls | significantly reduced | 37.1 ± 6.3 s | 40.9 ± 7.0 s
2 | Oc1ccc([C@@H]2COc3cc(O)ccc3C2)cc1 [R-equol] | does not bind the androgen receptor |  |  |  |  |  |  |  |  | 45.6 (±5.5) g | 0.85 (±0.04) g | 0.31 (±0.02) g |  |  |  |  |  |  | 36.4 ± 7.6 s | 50.0 ± 10.0 s
